Marks after values point to notes of the source that are not given here.
Assays:
[1] = target: T1, carnosinase-1 (recombinant Human CN-1) (Homo sapiens, UniProt Q96KN2); assay: Enzymatic hydrolysis by carnosinase-1 (histidine release, fluorometric assay); format: biochemical; conditions: for Fluorescence (proportional to histidine release) on incubation with recombinant CN-1: 1 mM substrate, Tris/HCl 50 mM pH 7.5, 30 °C, 5-80 min, Fig. 3; for Hydrolysis in human serum: as worded in the abstract: human serum
T1 construct: purchased Novoprotein Company, Suzhou, China
T1 sequence (Q96KN2 26-507): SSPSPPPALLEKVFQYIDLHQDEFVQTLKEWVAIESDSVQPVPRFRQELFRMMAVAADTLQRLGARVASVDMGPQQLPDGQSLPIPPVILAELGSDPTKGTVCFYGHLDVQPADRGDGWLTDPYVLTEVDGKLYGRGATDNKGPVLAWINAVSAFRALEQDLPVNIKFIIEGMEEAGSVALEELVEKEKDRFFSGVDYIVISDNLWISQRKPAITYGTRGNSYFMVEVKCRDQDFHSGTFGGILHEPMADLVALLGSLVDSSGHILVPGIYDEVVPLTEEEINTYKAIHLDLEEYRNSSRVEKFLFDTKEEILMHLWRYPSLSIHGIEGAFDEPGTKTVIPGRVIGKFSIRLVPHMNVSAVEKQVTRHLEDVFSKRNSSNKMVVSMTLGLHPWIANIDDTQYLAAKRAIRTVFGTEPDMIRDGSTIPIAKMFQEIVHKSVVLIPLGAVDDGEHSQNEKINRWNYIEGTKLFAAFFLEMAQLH
Procedure: The resistance of the PEG-car to the enzymatic hydrolysis by carnosinase-1 was assayed by a previously designed enzymatic activity test (Lenney et al. [1982]). Briefly, PEG, PEG-car and L-carnosine (1 mM) respectively were incubated in Tris/HCl buffer (50 mM, pH 7.5) at 30 °C with carnosinase-1 (recombinant Human CN-1, Novoprotein Company, Suzhou, China). Aliquots of each sample taken after 5, 10, 20, 30, 40, 60, 80 min, and the enzymatic reaction was stopped by addition of 50 µL of 1% trichloroacetic acid (TCA). After addition of 50 µL of 5 mg/mL o-pthaldialdehyde dissolved in 2 M NaOH and incubation for 30 min at 30 °C, the amount of liberated histidine was quantified by fluorometric assay conducted by a multifunctional enzyme marker reader.

[2] = Pharmacokinetics in kidney of mice after single intravenous injection (LC-MS/MS); format: in vivo, C57BL/6J mice; conditions: for half-life: 1000 mg/kg i.v. single injection, noncompartmental, naive pooled; for AUC: 0 to 240 min sampling
Procedure: (§1) Six- to eight-week-old male C57BL/6J (20–25 g) mice were purchased from Sino-British SIPPR/BK Lab Animal Ltd (Shanghai, China). After ad libitum feeding for one week, the mice were randomly divided into three groups: the control group (n = 3, saline treated), the PEG-car treated group (n = 3) and the L-carnosine treated group (n = 3). Hereof, each mouse was respectively injected intravenously (i.v.) with saline, PEG-car (1000 mg/kg) or L-carnosine (1000 mg/kg) through the tail vein. The mice were anaesthetized by the inhalation of isoflurane during the injection. Blood samples were collected in EDTA tubes by cardiac puncture at 0, 5, 15, 30, 60, 120, 240 min after the administration of PEG-car or L-carnosine. Sera were obtained by centrifugation of the blood sample at 6800 g for 6 min at 4 ℃. Right after sacrifice, the mice were perfused by phosphate-buffered saline to remove the remaining blood. The brains and kidneys were carefully isolated thereafter. The tissues were stored at − 80 ℃and the sera were stored at − 20 ℃ untill use.
(§2) PEG-car or L-carnosine levels in serum and tissues were determined by liquid chromatography tandem-mass spectrometry (LC-MS/MS). Warfarin (Sigma-Aldrich, St. Louis, MO, USA) was used as internal standard (IS). The entire procedure for sample and standard preparation was carried out on ice. An aliquot of 20 µL serum or homogenized 40 mg tissue were pipetted into centrifuge tube and then 400 µL methanol was added for protein precipitation. After spiking the IS (40 ng for serum and 4 ng for kidney), the samples were vortexed for 1 min and then centrifuged at 18,000 g for 7 min at 4 ℃. The supernatant was used for the assay. The calibration curves were prepared by spiking the known concentrations of PEG-car or L-carnosine into serum or tissue homogenates obtained from untreated mice.
(§3) The concentrations were measured by a UHPLC system (Shimadzu LC-40D XS, Japan) coupled with electrospray ionization (ESI) and triple quadrupole-ion trap mass spectrometry (AB SCIEX QTRAP® 6500+, Singapore). PEG-car was performed in ACQUITY UPLC BEH C18 column (2.1 mm×50 mm, 1.7 μm, Waters, USA) with a 0.6 mL/min flow rate of mobile phase using gradient elution of ultrapure water (2mM Ammonium acetate (Sinopharm Chemical Reagent Co., Ltd, Shanghai, China) containing 0.1% formic acid, eluent A) and acetonitrile (2mM Ammonium formate (Sinopharm Chemical Reagent Co., Ltd, Shanghai, China) containing 0.1% formic acid, eluent B). The solvent gradient was changed according to the following program: 0–0.01 min 10%B, 0.01–0.6 min 10-90%B, 0.6–1.2 min 90%B, 1.2–1.21 min 90%-10%B, 1.21–1.5 min 10%B. L-carnosine was performed in ACQUITY UPLC BEH Amide column (2.1 mm×50 mm, 1.7 μm, Waters, USA) with a 0.6 mL/min flow rate of mobile phase using gradient elution of ultrapure water (2mM Ammonium acetate containing 0.1% formic acid, eluent A) and acetonitrile (2mM Ammonium formate containing 0.1% formic acid, eluent B). The solvent gradient was as follows: 0–0.01 min 90%B, 0.01–0.6 min 90%-40%B, 0.6–1.2 min 40%B, 1.2–1.21 min 40-90%B, 1.21–1.5 min 90%B. The injection volume was 5 µL. The QTRAP® 6500 + was operated in positive mode, multiple reaction monitoring (MRM) in unit resolution for Q1 and Q3. For detection of PEG-car, three transitions were set with a Q1 mass of 776.4, and Q3 masses of 109.9 (Collision Energy (CE) 119), 126.8 (CE 51), 707.2 (CE 38). For L-carnosine, four transitions were set with a Q1 mass of 227.3, and Q3 masses of 83.1 (CE 53), 110.0(CE 31), 156.2(CE 21), 210.2(CE 16). Pharmacokinetic parameters were calculated by noncompartmental analysis using a sparse sampling and naïve pooled approach (Phoenix WinNonLin 7.0, Certara, Mountain View, CA, USA).

[3] = Pharmacokinetics in serum of mice after single intravenous injection (LC-MS/MS); format: in vivo, C57BL/6J mice; conditions: for half-life: 1000 mg/kg i.v. single injection, noncompartmental, naive pooled; for AUC: 0 to 240 min sampling
Procedure: as §1, §2, §3

[4] = male, C57BL/6J, mouse, iv, read-out: Half-Life
[5] = male, C57BL/6J, mouse, iv, 1000 mg/kg i.v., at 5 min

mPEG-carnosine
Fluorescence (proportional to histidine release) on incubation with recombinant CN-1 [1]: approximately six times lower than that of the carnosine sample | Hydrolysis in human serum [1]: highly resistant to hydrolysis | Inhibition of CN-1 activity ([1]; mixture of PEG-car with L-carnosine incubated with recombinant CN-1): the activity of CN-1 cannot be inhibited by PEG-car | CL ([2]; 1000 mg/kg i.v.): 3.47^d* g/min/kg | Vss ([2]; 1000 mg/kg i.v.): 830^e* g/kg | half-life [2]: 168* min | AUC ([2]; 1000 mg/kg i.v.): 173,340^c* ng/mg tissue·min | Cmax (5 min) ([2]; 1000 mg/kg i.v., at 5 min): 3899^b* ng/mg tissue | CL ([3]; 1000 mg/kg i.v.): 14.84 mL/min/kg | Vss ([3]; 1000 mg/kg i.v.): 294* mL/kg | half-life [3]: 0.533 h | AUC ([3]; 1000 mg/kg i.v.): 67,730 µg/mL·min | Cmax (5 min) ([3]; 1000 mg/kg i.v., at 5 min): 2671 µg/mL

NCCC(=O)N[C@@H](Cc1cnc[nH]1)C(=O)O [L-carnosine, reference compound]
Fluorescence (proportional to histidine release) on incubation with recombinant CN-1 [1]: fluorescence increased with time | Hydrolysis in human serum [1]: rapidly hydrolyzed | CL ([2]; 1000 mg/kg i.v.): 1.59^d g/min/kg | Vss ([2]; 1000 mg/kg i.v.): 208^e g/kg | AUC ([2]; 1000 mg/kg i.v.): 518,040^c ng/mg tissue·min | half-life [2, 4]: 1.75 h | Cmax [2, 5]: 5.91e+06 ng/g | clearance ([3]; male, C57BL/6J, mouse, iv, 1000 mg/kg i.v.): 15.4 mL/min/kg | half-life [3, 4]: 1.03 h | AUC ([3]; male, C57BL/6J, mouse, iv, 1000 mg/kg i.v., read-out: AUC (converted)): 1080 µg·h/mL | Cmax [3, 5]: 2860 µg/mL | Vd ([3]; male, C57BL/6J, mouse, iv, 1000 mg/kg i.v., read-out: Vss): 0.606 L/kg
